Laboratory results taken from PubChem BioAssay AID248 (DTP/NCI, 2004).
Where “and” joins values, the source holds several entries; their conditions need not be identical. Identical values can stand only once. Inconclusive results and toxic doses are left out.

Tested on: L1210 leukemia ip in BDF1 mice, survival T/C
Assay: NCI In Vivo Anticancer Drug Screen. Data for tumor model L1210 Leukemia (intraperitoneal) in B6D2F1 (BDF1) mice
Conditions: higher = longer survival
In short: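 Transplanted-tumor mice were given test agent; controls received vehicle only. Survival readings from the two groups were divided (treated over control).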

[1] = endpoint: mean survival time, dose: 100.0 mg/kg/injection, schedule: Q01DX001 (ip), vehicle: saline
[2] = endpoint: mean survival time, dose: 400.0 mg/kg/injection, schedule: Q01DX001 (ip), vehicle: saline

Structure (SMILES): COC1=Nc2ccccc2/C=C\c2ccccc21
- T/C (endpoint: mean survival time, dose: 100.0 mg/kg/injection, schedule: Q04DX002 (ip), vehicle: carboxymethylcellulose (CMC)): 96 % of control
- T/C (endpoint: mean survival time, dose: 200.0 mg/kg/injection, schedule: Q04DX002 (ip), vehicle: carboxymethylcellulose (CMC)): 89 % of control
- T/C (endpoint: mean survival time, dose: 400.0 mg/kg/injection, schedule: Q04DX002 (ip), vehicle: carboxymethylcellulose (CMC)): 89 % of control

Structure (SMILES): O=NN(CCCl)C(=O)NC1CCC(=O)NC1=O (stereo unspecified)
- T/C (endpoint: mean survival time, dose: 0.5 mg/kg/injection, schedule: Q01DX001 (ip), vehicle: other): 104 % of control
- T/C (endpoint: mean survival time, dose: 1.0 mg/kg/injection, schedule: Q01DX001 (ip), vehicle: other): 106 % of control
- T/C (endpoint: mean survival time, dose: 2.0 mg/kg/injection, schedule: Q01DX001 (ip), vehicle: other): 118 % of control
- T/C (endpoint: mean survival time, dose: 5.5 mg/kg/injection, schedule: Q01DX001 (ip), vehicle: other): 172 % of control
- T/C (endpoint: mean survival time, dose: 6.0 mg/kg/injection, schedule: Q01DX001 (ip), vehicle: other): 203 % of control
- T/C (endpoint: mean survival time, dose: 8.0 mg/kg/injection, schedule: Q01DX001 (ip), vehicle: other): 246 % of control
- T/C (endpoint: mean survival time, dose: 11.0 mg/kg/injection, schedule: Q01DX001 (ip), vehicle: other): 300 % of control
- T/C (endpoint: mean survival time, dose: 12.0 mg/kg/injection, schedule: Q01DX001 (ip), vehicle: other): 292 % of control
- T/C (endpoint: mean survival time, dose: 16.0 mg/kg/injection, schedule: Q01DX001 (ip), vehicle: other): 315 % of control and 326 % of control
- T/C (endpoint: mean survival time, dose: 22.0 mg/kg/injection, schedule: Q01DX001 (ip), vehicle: other): 340 % of control
- T/C (endpoint: mean survival time, dose: 24.0 mg/kg/injection, schedule: Q01DX001 (ip), vehicle: other): 220 % of control
- T/C (endpoint: mean survival time, dose: 33.0 mg/kg/injection, schedule: Q01DX001 (ip), vehicle: other): 340 % of control
- T/C (endpoint: mean survival time, dose: 36.0 mg/kg/injection, schedule: Q01DX001 (ip), vehicle: other): 93 % of control
- T/C (endpoint: mean survival time, dose: 44.0 mg/kg/injection, schedule: Q01DX001 (ip), vehicle: other): 295 % of control
- T/C (endpoint: median survival time, dose: 0.63 mg/kg/injection, schedule: Q01DX001 (ip), vehicle: other): 106 % of control
- T/C (endpoint: median survival time, dose: 0.63 mg/kg/injection, schedule: Q01DX001 (ip), vehicle: saline): 110 % of control
- T/C (endpoint: median survival time, dose: 0.63 mg/kg/injection, schedule: Q01DX001 (iv), vehicle: other): 103 % of control
- T/C (endpoint: median survival time, dose: 0.63 mg/kg/injection, schedule: Q01DX001 (iv), vehicle: saline): 108 % of control
- T/C (endpoint: median survival time, dose: 1.25 mg/kg/injection, schedule: Q01DX001 (ip), vehicle: other): 116 % of control
- T/C (endpoint: median survival time, dose: 1.25 mg/kg/injection, schedule: Q01DX001 (ip), vehicle: saline): 120 % of control
- T/C (endpoint: median survival time, dose: 1.25 mg/kg/injection, schedule: Q01DX001 (iv), vehicle: other): 118 % of control
- T/C (endpoint: median survival time, dose: 1.25 mg/kg/injection, schedule: Q01DX001 (iv), vehicle: saline): 106 % of control
- T/C (endpoint: median survival time, dose: 2.5 mg/kg/injection, schedule: Q01DX001 (iv), vehicle: other): 122 % of control
- T/C (endpoint: median survival time, dose: 2.5 mg/kg/injection, schedule: Q01DX001 (iv), vehicle: saline): 118 % of control
- T/C (endpoint: median survival time, dose: 5.0 mg/kg/injection, schedule: Q01DX001 (ip), vehicle: other): 227 % of control
- T/C (endpoint: median survival time, dose: 5.0 mg/kg/injection, schedule: Q01DX001 (ip), vehicle: saline): 193 % of control
- T/C (endpoint: median survival time, dose: 5.0 mg/kg/injection, schedule: Q01DX001 (iv), vehicle: other): 151 % of control
- T/C (endpoint: median survival time, dose: 5.0 mg/kg/injection, schedule: Q01DX001 (iv), vehicle: saline): 150 % of control
- T/C (endpoint: median survival time, dose: 10.0 mg/kg/injection, schedule: Q01DX001 (ip), vehicle: other): 600 % of control
- T/C (endpoint: median survival time, dose: 10.0 mg/kg/injection, schedule: Q01DX001 (ip), vehicle: saline): 598 % of control
- T/C (endpoint: median survival time, dose: 10.0 mg/kg/injection, schedule: Q01DX001 (iv), vehicle: other): 290 % of control
- T/C (endpoint: median survival time, dose: 10.0 mg/kg/injection, schedule: Q01DX001 (iv), vehicle: saline): 253 % of control
- T/C (endpoint: median survival time, dose: 20.0 mg/kg/injection, schedule: Q01DX001 (ip), vehicle: other): 550 % of control
- T/C (endpoint: median survival time, dose: 20.0 mg/kg/injection, schedule: Q01DX001 (ip), vehicle: saline): 596 % of control
- T/C (endpoint: median survival time, dose: 20.0 mg/kg/injection, schedule: Q01DX001 (iv), vehicle: other): 599 % of control
- T/C (endpoint: median survival time, dose: 20.0 mg/kg/injection, schedule: Q01DX001 (iv), vehicle: saline): 600 % of control
- T/C (endpoint: median survival time, dose: 40.0 mg/kg/injection, schedule: Q01DX001 (ip), vehicle: other): 101 % of control
- T/C (endpoint: median survival time, dose: 40.0 mg/kg/injection, schedule: Q01DX001 (ip), vehicle: saline): 104 % of control

Structure (SMILES): CCCNC(=O)Nc1ccc(C)cc1
- T/C (endpoint: mean survival time, dose: 100.0 mg/kg/injection, schedule: Q01DX001 (ip), vehicle: carboxymethylcellulose (CMC)): 116 % of control
- T/C (endpoint: mean survival time, dose: 200.0 mg/kg/injection, schedule: Q01DX001 (ip), vehicle: carboxymethylcellulose (CMC)): 94 % of control
- T/C (endpoint: mean survival time, dose: 400.0 mg/kg/injection, schedule: Q01DX001 (ip), vehicle: carboxymethylcellulose (CMC)): 103 % of control

Structure (SMILES): CC(C)C(C(N)=O)N1C(=O)C2C3CCC(C3)C2C1=O (stereo unspecified)
- T/C (endpoint: mean survival time, dose: 100.0 mg/kg/injection, schedule: Q04DX003 (ip), vehicle: saline): 98 % of control
- T/C (endpoint: mean survival time, dose: 200.0 mg/kg/injection, schedule: Q04DX003 (ip), vehicle: saline): 95 % of control
- T/C (endpoint: mean survival time, dose: 400.0 mg/kg/injection, schedule: Q04DX003 (ip), vehicle: saline): 107 % of control

Structure (SMILES): CCOC(=O)NNC(=O)CN
- T/C (endpoint: mean survival time, dose: 75.0 mg/kg/injection, schedule: Q01DX001 (ip), vehicle: saline): 104 % of control

Structure (SMILES): O=C(NCCCCCCNC(=O)OCc1ccccc1)OCc1ccccc1
- T/C (endpoint: mean survival time, dose: 10.0 mg/kg/injection, schedule: Q01DX Z (ip), vehicle: saline): 98 % of control
- T/C (endpoint: mean survival time, dose: 30.0 mg/kg/injection, schedule: Q01DX Z (ip), vehicle: saline): 96 % of control
- T/C (endpoint: mean survival time, dose: 100.0 mg/kg/injection, schedule: Q01DX Z (ip), vehicle: saline): 100 % of control
- T/C (endpoint: mean survival time, dose: 300.0 mg/kg/injection, schedule: Q01DX Z (ip), vehicle: saline): 98 % of control

Structure (SMILES): CCc1ccc(NC(=O)Nc2ccc(OC)cc2)cc1
- T/C (endpoint: mean survival time, dose: 100.0 mg/kg/injection, schedule: Q01DX009 (ip), vehicle: gum acacia): 97 % of control
- T/C (endpoint: mean survival time, dose: 100.0 mg/kg/injection, schedule: Q04DX003 (ip), vehicle: gum acacia): 95 % of control
- T/C (endpoint: mean survival time, dose: 200.0 mg/kg/injection, schedule: Q01DX009 (ip), vehicle: gum acacia): 92 % of control
- T/C (endpoint: mean survival time, dose: 200.0 mg/kg/injection, schedule: Q04DX003 (ip), vehicle: gum acacia): 92 % of control
- T/C (endpoint: mean survival time, dose: 400.0 mg/kg/injection, schedule: Q01DX009 (ip), vehicle: gum acacia): 91 % of control
- T/C (endpoint: mean survival time, dose: 400.0 mg/kg/injection, schedule: Q04DX003 (ip), vehicle: gum acacia): 94 % of control

Structure (SMILES): NC(=O)c1c(Br)n(C2OC(CO)C(O)C2O)c2ncnc(N)c12 (stereo unspecified)
- T/C (endpoint: mean survival time, dose: 50.0 mg/kg/injection, schedule: Q04DX003 (ip), vehicle: saline with Tween-80): 102 % of control
- T/C [1]: 121 % of control
- T/C (endpoint: mean survival time, dose: 178.0 mg/kg/injection, schedule: Q01DX001 (ip), vehicle: saline): 111 % of control
- T/C (endpoint: mean survival time, dose: 267.0 mg/kg/injection, schedule: Q01DX001 (ip), vehicle: saline): 109 % of control
- T/C [2]: 120 % of control
- T/C (endpoint: mean survival time, dose: 400.0 mg/kg/injection, schedule: Q04DX003 (ip), vehicle: saline with Tween-80): 150 % of control

Structure (SMILES): NC(=O)NC1C=CC=CC=C1
- T/C (endpoint: mean survival time, dose: 100.0 mg/kg/injection, schedule: Q01DX001 (ip), vehicle: acetone): 107 % of control
- T/C (endpoint: mean survival time, dose: 200.0 mg/kg/injection, schedule: Q01DX001 (ip), vehicle: acetone): 93 % of control
- T/C (endpoint: mean survival time, dose: 400.0 mg/kg/injection, schedule: Q01DX001 (ip), vehicle: acetone): 98 % of control

Structure (SMILES): COc1ccc(COC(=O)CN2C(=O)c3ccccc3C2=O)cc1
- T/C (endpoint: mean survival time, dose: 100.0 mg/kg/injection, schedule: Q01DX009 (ip), vehicle: Klucel (hydroxypropylcellulose) (HPC)): 98 % of control
- T/C (endpoint: mean survival time, dose: 100.0 mg/kg/injection, schedule: Q04DX003 (ip), vehicle: Klucel (hydroxypropylcellulose) (HPC)): 95 % of control
- T/C (endpoint: mean survival time, dose: 200.0 mg/kg/injection, schedule: Q01DX009 (ip), vehicle: Klucel (hydroxypropylcellulose) (HPC)): 107 % of control
- T/C (endpoint: mean survival time, dose: 200.0 mg/kg/injection, schedule: Q04DX003 (ip), vehicle: Klucel (hydroxypropylcellulose) (HPC)): 95 % of control
- T/C (endpoint: mean survival time, dose: 400.0 mg/kg/injection, schedule: Q01DX009 (ip), vehicle: Klucel (hydroxypropylcellulose) (HPC)): 98 % of control
- T/C (endpoint: mean survival time, dose: 400.0 mg/kg/injection, schedule: Q04DX003 (ip), vehicle: Klucel (hydroxypropylcellulose) (HPC)): 93 % of control

Structure (SMILES): CC(=O)Oc1ccc(OC(C)=O)c([N+](=O)[O-])c1
- T/C [1]: 103 % of control
- T/C (endpoint: mean survival time, dose: 200.0 mg/kg/injection, schedule: Q01DX001 (ip), vehicle: saline): 102 % of control
- T/C [2]: 103 % of control

Structure (SMILES): O=C(Nc1ccc(C2=NCCN2)cc1)c1ccc(C(=O)Nc2ccc(C3=NCCN3)cc2)o1
- T/C (endpoint: mean survival time, dose: 15.0 mg/kg/injection, schedule: Q01DX Z (ip), vehicle: carboxymethylcellulose (CMC)): 113 % of control
- T/C (endpoint: mean survival time, dose: 30.0 mg/kg/injection, schedule: Q01DX Z (ip), vehicle: carboxymethylcellulose (CMC)): 120 % of control
- T/C (endpoint: mean survival time, dose: 120.0 mg/kg/injection, schedule: Q01DX Z (ip), vehicle: carboxymethylcellulose (CMC)): 248 % of control
- T/C (endpoint: mean survival time, dose: 240.0 mg/kg/injection, schedule: Q01DX Z (ip), vehicle: saline): 252 % of control
- T/C (endpoint: mean survival time, dose: 480.0 mg/kg/injection, schedule: Q01DX Z (ip), vehicle: saline): 111 % of control
